Legend:
Test in all cases: AUC of viability dose-response curve (% viability x log10 dose units); higher = less sensitive
Conditions in all cases: 48 h
NOMO1 = system: NOMO1
Summary of the method: (§1)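 Leukemia cells adapted to each medium were seeded in 1536-well plates (500 or 1000 cells/well). They were dosed with library compounds in DMSO at 11 threefold doses, 47 μM to 0.79 nM, for 48 h at 37°C. CellTiter-Glo One luminescence was normalised per plate to DMSO and cell-free wells. Area under the curve was integrated by trapezoidal rule over log10 doses on a four-parameter log-logistic fit; curves exceeding full viability were scaled and curves failing quality control removed.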

P12-Ichikawa = system: P12-Ichikawa
Summary of the method: as §1

SEM cells = system: SEM cells
Summary of the method: as §1

[1] = RPMI 5 mM glucose + 10% dialyzed FBS

Row | Structure (SMILES) | AUC of viability dose-response curve (NOMO1; HPLM + 10% dialyzed FBS) | AUC of viability dose-response curve (NOMO1; RPMI 5 mM glucose + 10% FBS) | AUC of viability dose-response curve (NOMO1; [1]) | AUC of viability dose-response curve (P12-Ichikawa; HPLM + 10% dialyzed FBS) | AUC of viability dose-response curve (P12-Ichikawa; RPMI 5 mM glucose + 10% FBS) | AUC of viability dose-response curve (P12-Ichikawa; [1]) | AUC of viability dose-response curve (SEM cells; HPLM + 10% dialyzed FBS) | AUC of viability dose-response curve (SEM cells; RPMI 5 mM glucose + 10% FBS) | AUC of viability dose-response curve (SEM cells; [1])
1 | CCN(CC)CCCCNc1nc2cc(Cl)c(Cl)cc2nc1-c1ccc(-c2cccs2)s1 | 444 | 454 | 453 | – | – | – | – | – | –
2 | CN(C)C(=O)c1ccc([S+](=O)([O-])c2ccc(NC(=O)[C@@](C)(O)C(F)(F)F)c(Cl)c2)cc1 | 411 | 425 | 451 | 455 | 448 | 446 | 472 | 417 | 444
3 | CCCCNc1cc(C(=O)O)cc([S+](N)(=O)[O-])c1Oc1ccccc1 | 477 | 427 | 461 | 458 | 465 | 465 | 419 | 433 | 440
4 | Oc1ccc(C2CCN(c3ccnc4ccccc34)CC2)cc1O | 445 | 457 | 467 | 427 | 418 | 408 | 399 | 386 | 404
5 | O=C1C[C@@H](c2ccc(O)cc2)Oc2cc(O)cc(O)c21 | 437 | 476 | 458 | 433 | 462 | 456 | 468 | 382 | 470
6 | Cc1cccc(-c2nn(C(=S)Nc3ccccc3)cc2-c2ccnc3ccccc23)n1 | 431 | 461 | 456 | 440 | 444 | 437 | 465 | 455 | 456
7 | CC[C@H]1/C=C\C=C/C[C@@H](C)[C@H](O)[C@@](C)(O)C(=O)[C@@H](C)[C@H](O)[C@@H](C)C(=O)[C@@H](C)[C@H](O)[C@@H](C)/C=C/C(=O)O[C@@H]2[C@H](C)[C@H](CC1)O[C@]1(CC[C@H](C)[C@H](C[C@@H](C)O)O1)[C@H]2C | 368 | 331 | 324 | 389 | 388 | 363 | 362 | 340 | 354
8 | CC1(C)C(=O)N(CCN2CCC(C(=O)c3ccc(F)cc3)CC2)c2ccccc21 | 468 | 465 | 459 | 469 | 472 | 462 | 471 | 455 | 471
9 | C[C@H]1C[C@H]2[C@@H]3CCC4=CC(=O)C=C[C@]4(C)[C@@]3(F)[C@@H](O)C[C@]2(C)[C@@]1(O)C(=O)CO | 429 | 470 | 459 | 362 | 322 | 303 | 358 | 338 | 305
10 | CN(C/C=C/C#CC(C)(C)C)Cc1cccc2ccccc12 | 458 | 440 | 447 | 475 | 468 | 444 | 452 | 450 | 455
11 | CO[C@H]1C[C@@H]2CC[C@@H](C)[C@@](O)(O2)C(=O)C(=O)N2CCCC[C@H]2C(=O)O[C@H]([C@H](C)C[C@@H]2CC[C@@H](OC(=O)C(C)(CO)CO)[C@H](OC)C2)CC(=O)[C@H](C)/C=C(\C)[C@@H](O)[C@@H](OC)C(=O)[C@H](C)C[C@H](C)/C=C/C=C/C=C/1C | 453 | 435 | 447 | 427 | 409 | 418 | – | – | –
12 | O=C(NC[C@H](O)CN1CCc2ccccc2C1)c1cc(NC2COC2)ncn1 | – | – | – | 397 | 372 | 388 | – | – | –
13 | COc1cc(Nc2ncc(F)c(Nc3ccc4c(n3)NC(=O)C(C)(C)O4)n2)cc(OC)c1OC | 379 | 392 | 404 | 373 | 386 | 384 | – | – | –
14 | CCN(CC)C(=S)SSC(=S)N(CC)CC | 375 | 365 | 361 | 366 | 363 | 362 | – | – | –
15 | CN1CCC(CC1)COC2=CN=C(N=C2)C3=CC(=CC=C3)CN4/N=C(\C=C/C4=O)C5=CC(=CC=C5)C#N | 468 | 464 | 471 | 472 | 465 | 464 | – | – | –
16 | CC(C)(C)c1cc(C=C(C#N)C#N)cc(Br)c1O | 473 | 471 | 456 | 453 | 452 | 452 | – | – | –
17 | NC1=NC=C(C=C1)C2=CC=C3N=CC\4=C(N(C(=O)\C=C4)C5=CC(=CC=C5)C(F)(F)F)C3=C2 | 191 | 214 | 194 | – | – | – | – | – | –
18 | c1cc(CN2CCCNCCNCCCNCC2)ccc1CN1CCCNCCNCCCNCC1 | – | – | – | – | – | – | 390 | 387 | 416
19 | NC(CO)(CO)CCc1ccc(Sc2cccc(OCc3ccccc3)c2)cc1Cl | 397 | 424 | 453 | 400 | 408 | 400 | – | – | –
20 | CC(=O)NC(CS)C(=O)O (stereo not given) | 376 | 352 | 377 | 369 | 354 | 359 | – | – | –

Reference: the supplement of paper PMC11451515
